# Reference: patent publication US20230203043A1, “NOVEL IMIDAZOPYRAZINE DERIVATIVES” (Hoffmann-La Roche Inc., priority 2020, published 2023)
# Counter-ions that a name gives are not always drawn.
# Test system: Acinetobacter baumannii ATCC17961
# Experiment: Antimicrobial susceptibility testing: 90% growth inhibitory concentration (IC90) determination in Iso-Sensitest broth, OD600 growth
# Type: cell-based
# Settings: Acinetobacter baumannii, ATCC17961, 16 h, read-out: A. baumannii ATCC 17961 IC90 (uM), strain ATCC 17961, OD600 growth over 16 h
# Outline: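 Twofold compound dilutions (e.g. 50 to 0.097 μM final) in Iso-Sensitest broth with ~5×10^(5) CFU/ml, 35±2 °C. OD600 read every 20 min over 16 h; IC90 from growth inhibition during logarithmic phase.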
row,SMILES,IC90 [µM]
1,"CCc1cc(Nc2nccn3c(-c4cn(CC(F)F)nc4C(F)(F)F)cnc23)ccc1C(=O)NC1CCCNC1 (stereo not shown) [Example 563, 4-((3-(1-(2,2-difluoroethyl)-3-(trifluoromethyl)-1H-pyrazol-4-yl)imidazo[1,2-a]pyrazin-8-yl)amino)-2-ethyl-N-(piperidin-3-yl)benzamide formate]",0.575
2,"CCc1cc(Nc2nccn3c(-c4cn(CC(F)F)nc4C(F)(F)F)cnc23)ccc1C(=O)N1CC2(CCN2)C1 [Example 564, (4-((3-(1-(2,2-difluoroethyl)-3-(trifluoromethyl)-1H-pyrazol-4-yl)imidazo[1,2-a]pyrazin-8-yl)amino)-2-ethylphenyl)(1,6-diazaspiro[3.3]heptan-6-yl)methanone formate]",0.58
3,"CCc1cc(Nc2nccn3c(-c4cn(CC(F)F)nc4C(F)(F)F)cnc23)ccc1C(=O)NC1CNC1 [Example 565, N-(azetidin-3-yl)-4-((3-(1-(2,2-difluoroethyl)-3-(trifluoromethyl)-1H-pyrazol-4-yl)imidazo[1,2-a]pyrazin-8-yl)amino)-2-ethylbenzamide formate]",0.188
4,"CCc1cc(Nc2nccn3c(-c4cn(CC#N)nc4C(F)(F)F)cnc23)ccc1C(=O)NCCNC(=O)CCN [Example 566, N-(2-(3-aminopropanamido)ethyl)-4-((3-(1-(cyanomethyl)-3-(trifluoromethyl)-1H-pyrazol-4-yl)imidazo[1,2-a]pyrazin-8-yl)amino)-2-ethylbenzamide formate]",0.477
5,"CCc1cc(Nc2nccn3c(-c4c[nH]nc4C(F)(F)F)cnc23)ccc1C(=O)NCCNC(=O)NCCCN [Example 569, N-(2-(3-(3-aminopropyl)ureido)ethyl)-2-ethyl-4-((3-(3-(trifluoromethyl)-1H-pyrazol-4-yl)imidazo[1,2-a]pyrazin-8-yl)amino)benzamide formate]",0.364
6,"O=C(CC1CCNCC1)N1CCN(C(=O)c2ccc(Nc3nccn4c(-c5c[nH]nc5C(F)(F)F)cnc34)cc2Cl)CC1 [Example 570, 1-(4-(2-chloro-4-((3-(3-(trifluoromethyl)-1H-pyrazol-4-yl)imidazo[1,2-a]pyrazin-8-yl)amino)benzoyl)piperazin-1-yl)-2-(piperidin-4-yl) ethan-1-one formate]",0.256
7,"NCCN1CCN(C(=O)c2ccc(Nc3nccn4c(-c5c[nH]nc5C(F)(F)F)cnc34)cc2Cl)CC1 [Example 571, (4-(2-aminoethyl)piperazin-1-yl)(2-chloro-4-((3-(3-(trifluoromethyl)-1H-pyrazol-4-yl)imidazo[1,2-a]pyrazin-8-yl)amino)phenyl) methanone formate]",0.192
8,"N#CCn1cc(-c2cnc3c(Nc4ccc(C(=O)N5CCN(C(=O)CC6CCNCC6)CC5)c(Cl)c4)nccn23)c(C(F)(F)F)n1 [Example 572, 2-(4-(8-((3-chloro-4-(4-(2-(piperidin-4-yl)acetyl)piperazine-1-carbonyl)phenyl)amino)imidazo[1,2-a]pyrazin-3-yl)-3-(trifluoromethyl)-1H-pyrazol-1-yl)acetonitrile formate]",0.291

# Same assay, conditions: Acinetobacter baumannii, ATCC17961, 16 h, strain ATCC 17961, OD600 growth over 16 h, read-out: A. baumannii ATCC 17961 IC90
row,SMILES,IC90 [µM]
1,"CCc1cc(Nc2nccn3c(-c4c[nH]nc4C(F)(F)F)cnc23)ccc1C(=O)NCCNC(=O)[C@H]1C[C@H](N)C1 [Example 567, N-(2-((1r,3r)-3-aminocyclobutane-1-carboxamido)ethyl)-2-ethyl-4-((3-(3-(trifluoromethyl)-1H-pyrazol-4-yl)imidazo[1,2-a]pyrazin-8-yl)amino) benzamide formate]",0.476
2,"CCc1cc(Nc2nccn3c(-c4c[nH]nc4C(F)(F)F)cnc23)ccc1C(=O)NCCNC(=O)N1CCC(N)CC1 [Example 568, 4-amino-N-(2-(2-ethyl-4-((3-(3-(trifluoromethyl)-1H-pyrazol-4-yl)imidazo[1,2-a]pyrazin-8-yl)amino)benzamido)ethyl) piperidine-1-carboxamide formate]",0.46
